One may read the inhibition as the percentage by which the read-out fell short of the control. The IC50 is the point on the concentration scale where inhibition reaches its midpoint. A low value points to greater potency in that assay.

In data set [1] the test system is Stat3-dependent luciferase reporter, pLucTKS3. The data set is described as follows: Stat3-dependent luciferase reporter pLucTKS3 in NIH3T3/v-Src. The format is cell-based, mouse. The following applies: 1–3 μM H182 for 1 h. On the procedure:
These studies were performed as previously reported using the v-Src-transformed NIH3T3/v-Src fibroblasts. Details are presented in Supplementary Information, “Methods”.
We next evaluated the effects of the azetidine compound, H182 on Stat3 transcriptional activity. We used mouse fibroblasts transformed by the viral Src oncoprotein (NIH3T3/vSrc) that harbor constitutive Stat3 activation, which were transiently transfected with the Stat3-dependent luciferase reporter, pLucTKS3 [25, 30]. Transfected cells were treated with H182 and the luciferase activity was assayed in the cytosolic extract preparations of equal total protein [12, 13, 30]. […]
In another case, the nuclear extract was pre-incubated with the radiolabeled probe for 30 min at 30 °C prior to incubation with increasing concentration of H182 at room temperature for 30 min and subjecting to EMSA analysis. Bands corresponding to Stats DNA- binding activities were scanned and quantified using ImageJ and plotted as a percentage of control (vehicle) against the concentration of the inhibitor, from which the IC50 values were derived . […]
These studies were performed as previously reported using the v-Src -transformed NIH3T3/v-Src fibroblasts [1 -5] . […] Luciferase activity was normalized to total protein concentration of cell lysate, which was determined by Bradford assay (Bio-Rad, Hercules, CA) . […]
Background: A reporter such as luciferase makes a cellular process visible.

The target of data set [2] is T1, glucocorticoid receptor (GR) (Homo sapiens, UniProt P04150).
T1 construct: Eurofins-CEREP (SafetyScreen44 panel)
T1 sequence (P04150 whole entry): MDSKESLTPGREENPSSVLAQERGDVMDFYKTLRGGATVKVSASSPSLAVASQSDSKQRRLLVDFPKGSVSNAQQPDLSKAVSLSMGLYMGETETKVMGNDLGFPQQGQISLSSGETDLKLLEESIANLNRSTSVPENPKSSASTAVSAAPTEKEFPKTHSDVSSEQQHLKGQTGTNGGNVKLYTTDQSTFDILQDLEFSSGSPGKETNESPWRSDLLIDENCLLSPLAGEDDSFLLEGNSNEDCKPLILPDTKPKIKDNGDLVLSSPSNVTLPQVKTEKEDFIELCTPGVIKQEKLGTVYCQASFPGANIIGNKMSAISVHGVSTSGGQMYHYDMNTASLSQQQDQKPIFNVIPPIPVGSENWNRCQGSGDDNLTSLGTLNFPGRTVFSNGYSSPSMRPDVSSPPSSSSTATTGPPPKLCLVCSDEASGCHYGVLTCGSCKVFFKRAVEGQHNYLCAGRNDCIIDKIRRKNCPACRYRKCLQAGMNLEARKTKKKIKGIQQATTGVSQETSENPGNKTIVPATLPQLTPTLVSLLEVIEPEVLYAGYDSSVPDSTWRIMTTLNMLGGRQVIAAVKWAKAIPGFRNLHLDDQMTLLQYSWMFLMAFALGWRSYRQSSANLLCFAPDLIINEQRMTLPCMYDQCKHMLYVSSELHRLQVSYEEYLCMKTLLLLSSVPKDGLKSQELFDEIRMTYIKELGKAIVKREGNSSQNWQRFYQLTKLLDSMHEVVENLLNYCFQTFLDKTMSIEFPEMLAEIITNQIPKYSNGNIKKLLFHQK
Put plainly: CEREP SafetyScreen44, glucocorticoid receptor. The format is binding.

A further data set deals with T2, CYP2D6 (Homo sapiens, UniProt P10635).
T2 construct: Eurofins-CEREP (contract research organisation that ran the assay)
T2 sequence (P10635 whole entry, species assumed): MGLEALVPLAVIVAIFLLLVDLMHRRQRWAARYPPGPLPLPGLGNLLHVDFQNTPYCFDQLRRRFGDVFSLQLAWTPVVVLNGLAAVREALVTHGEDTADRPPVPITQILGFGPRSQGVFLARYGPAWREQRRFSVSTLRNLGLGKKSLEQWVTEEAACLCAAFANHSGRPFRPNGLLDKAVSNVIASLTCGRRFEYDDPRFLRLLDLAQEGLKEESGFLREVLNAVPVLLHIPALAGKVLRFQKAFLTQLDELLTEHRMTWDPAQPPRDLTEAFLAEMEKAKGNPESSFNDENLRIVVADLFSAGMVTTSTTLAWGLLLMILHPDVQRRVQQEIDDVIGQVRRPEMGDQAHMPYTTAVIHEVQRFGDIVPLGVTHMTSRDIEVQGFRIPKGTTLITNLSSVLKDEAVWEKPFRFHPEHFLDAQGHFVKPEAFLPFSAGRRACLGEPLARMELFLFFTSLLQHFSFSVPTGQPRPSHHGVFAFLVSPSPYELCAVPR
The data set is described as follows: CYP inhibition, CYP2D6. The following applies: read-out: CYP Inhibition CYP2D6 % Inh at 10 μM. The format is in vitro ADME. The protocol: The in vivo activity of a compound is influenced by its overall bioavailability, which is also driven by parameters, such as solubility, permeability, and metabolism. […] These values are all above the industry cut-off of 60 μg/ml. […] It has CLint in human hepatocytes of 16 μL/min/10^6 cells, which falls into moderate stability range [43].

The next data set addresses Stat3 (Homo sapiens, UniProt P40763). Put plainly: Immunofluorescence confocal microscopy of Stat3 localization. The format is cell-based. Details: endogenous in cells. The settings on record: MDA-MB-231 and MDA-MB-468, 1 or 2 μM H182, 12 h. On the procedure:
These studies were performed as previously reported. Details are presented in Supplementary Information, “Methods”.
During confluence of cultured cells, the cell-to-cell adhesion and cadherin engagement trigger increased Tyr705Stat3 phosphorylation in a variety of cell lines. To investigate the impact of cell-to-cell adhesion and cadherin engagement, parallel studies were conducted in which cells in culture were untreated or treated with 1 or 2 μM H182 for 0.5–48 h, and whole-cell lysates prepared and immunoprobed for pTyr705Stat3. […] After 48-h incubation, the cell confluency of the DMSO-treated samples reached to around 60% for MDA-MB-468 cells and 80% for MDA-MB-231 cells. […] In the untreated cells, Stat3 (red punctate) staining was predominantly localized in the nucleus of the tumor cells, with weak presence in the cytoplasm (Fig. 4F, 0, Stat3, red merged with blue DAPI nuclear staining). […] Total Stat3 protein levels in all of these studies were unchanged, and GAPDH, tubulin or β-actin levels show equal protein loading. The percent changes induced by H182 treatment on Stat3 DNA-binding activity and phosphorylation in the treated cells are shown.
These studies were performed as previously reported . […]

Stat3, sequence (P40763 whole entry): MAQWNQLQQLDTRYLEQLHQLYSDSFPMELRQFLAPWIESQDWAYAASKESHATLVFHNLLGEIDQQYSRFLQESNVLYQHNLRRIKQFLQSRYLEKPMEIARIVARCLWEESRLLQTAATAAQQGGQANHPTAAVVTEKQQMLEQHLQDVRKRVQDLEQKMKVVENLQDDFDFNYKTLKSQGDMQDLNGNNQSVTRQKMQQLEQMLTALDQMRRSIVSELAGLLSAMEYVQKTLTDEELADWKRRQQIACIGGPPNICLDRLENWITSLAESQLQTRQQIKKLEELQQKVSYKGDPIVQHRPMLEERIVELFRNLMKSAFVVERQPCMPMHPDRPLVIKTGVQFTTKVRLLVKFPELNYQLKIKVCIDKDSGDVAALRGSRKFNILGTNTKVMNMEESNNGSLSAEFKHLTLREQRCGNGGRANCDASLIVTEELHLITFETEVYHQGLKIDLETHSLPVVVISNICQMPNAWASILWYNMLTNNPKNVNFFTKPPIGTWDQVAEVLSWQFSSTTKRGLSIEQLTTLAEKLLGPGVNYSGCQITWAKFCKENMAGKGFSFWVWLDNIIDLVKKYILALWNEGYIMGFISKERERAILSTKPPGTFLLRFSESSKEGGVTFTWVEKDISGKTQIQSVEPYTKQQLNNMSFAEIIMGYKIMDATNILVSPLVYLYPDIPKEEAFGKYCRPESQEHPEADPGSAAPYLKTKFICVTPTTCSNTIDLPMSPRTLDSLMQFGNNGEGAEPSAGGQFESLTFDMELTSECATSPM

Take `O=C([C@H]1CCN1S(=O)(=O)c1c(F)c(F)c(F)c(F)c1F)N(Cc1ccc(C2CCCCC2)cn1)c1ccc2c(=O)[nH]ncc2c1` [Compound H182]: the “Effect on Stat3-driven luciferase reporter expression (pLucTKS3)” value in data set [1] is “dose-dependent inhibition”. Besides, the figures for the inhibition at 10 µM (in data set [2] (10 μM H182); at CYP2D6) were greater than 80% and 9%, respectively. This compound showed a half-maximal inhibitory concentration (IC50) in data set [2] (SafetyScreen44 follow-up dose-response) of 110 nM. The “Effect on intracellular localization of Stat3” value at Stat3 is “decreased nuclear Stat3 staining and Stat3 aggregation at the perinuclear region”.

These data come from publication PMC9867837 (Cancer letters, 2022).
